These results are taken from US20260226048A1, “MULTI-CYCLIC IRAK AND FLT3 INHIBITING COMPOUNDS AND USES THEREOF” (CHILDREN'S HOSPITAL MEDICAL CENTER, priority 2023, published 2026).

The subject of one test is THP1 cells (FLT3 WT). In words: Combination drug screening with venetoclax in THP1 cells (Cell Titre Glo, 10 × 10). It counts as cell-based. The note with it: for Excess HSA (sum excess HSA score, combination with venetoclax): 10 × 10 dataset, Cell Titre Glo at 48 hours, optimal of 4 dose combinations, negative = synergy; for Concentration needed to decrease the 312.5 nM Venetoclax response to <20%: Cell Titer Glo at 48 hours. On the procedure:
These assays were performed using the Cell Titre Glo assay, measured at 48 hours.
A smaller concentration indicates higher potency to synergize with Venetoclax.

Another test addresses T1, FLT3 D835H (Homo sapiens, UniProt P36888, D835H).
T1 construct: purchased DiscoverX (KINOMEscan); host or cells: E. coli BL21-derived host (T7 phage) or HEK-293
T1 sequence (P36888 27-993 D835H): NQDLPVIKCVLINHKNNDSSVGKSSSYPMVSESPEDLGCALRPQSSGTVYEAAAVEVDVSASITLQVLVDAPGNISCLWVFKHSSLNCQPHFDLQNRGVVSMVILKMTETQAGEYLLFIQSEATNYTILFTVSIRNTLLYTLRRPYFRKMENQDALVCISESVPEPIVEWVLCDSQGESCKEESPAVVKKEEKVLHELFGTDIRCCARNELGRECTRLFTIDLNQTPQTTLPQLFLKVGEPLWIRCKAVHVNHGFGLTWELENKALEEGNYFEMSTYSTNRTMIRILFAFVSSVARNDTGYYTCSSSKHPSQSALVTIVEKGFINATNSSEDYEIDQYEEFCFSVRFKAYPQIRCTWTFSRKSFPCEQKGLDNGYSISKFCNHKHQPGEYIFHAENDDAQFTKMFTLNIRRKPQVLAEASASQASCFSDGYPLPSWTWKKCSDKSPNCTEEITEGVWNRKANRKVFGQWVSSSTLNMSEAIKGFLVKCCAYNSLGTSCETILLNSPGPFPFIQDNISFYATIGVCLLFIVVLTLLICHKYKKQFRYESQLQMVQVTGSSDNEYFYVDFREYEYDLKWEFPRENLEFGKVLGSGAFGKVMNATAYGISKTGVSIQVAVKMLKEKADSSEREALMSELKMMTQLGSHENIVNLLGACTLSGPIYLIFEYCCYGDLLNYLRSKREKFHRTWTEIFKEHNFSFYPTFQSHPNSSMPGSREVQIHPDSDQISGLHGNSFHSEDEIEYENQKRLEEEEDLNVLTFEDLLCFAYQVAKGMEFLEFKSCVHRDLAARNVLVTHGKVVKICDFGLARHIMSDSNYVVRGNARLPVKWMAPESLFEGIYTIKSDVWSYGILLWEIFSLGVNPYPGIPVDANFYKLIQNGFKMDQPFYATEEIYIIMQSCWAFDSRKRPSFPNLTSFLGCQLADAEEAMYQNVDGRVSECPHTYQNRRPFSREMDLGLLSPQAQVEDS
In words: DiscoverX KINOMEscan competition binding assay, FLT3 D835H. The conditions noted are these: 11-point 3-fold dilution. The text has this:
(§1) […]. […] As a result, the data report thermodynamic interaction affinities (Kd values), rather than IC50 values that are dependent on ATP concentrations. The assay uses a DNA-tagged version of the protein kinase, and an immobilized ligand bound to a solid support. Compounds that directly or indirectly prevent kinase binding to the immobilized ligand reduce the amount of kinase captured on the solid support, which is detected using an ultra-sensitive qPCR method. Affinity constants reported from the assay have been reported to be independent of the immobilized ligand used that is coupled to the solid support (See supplemental information in Fabian, M. A. et. al., (2005) Nat. Biotechnol. 23, 329-336; Wodicka, L. M. et. al., (2010) Chem. Biol. 17, 1241-1249.)
(§2) Kinase-tagged T7 phage strains were prepared in an E. coli host derived from the BL21 strain. E. coli were grown to log-phase and infected with T7 phage and incubated with shaking at 32° C. until lysis. The lysates were centrifuged and filtered to remove cell debris. The remaining kinases were produced in HEK-293 cells and subsequently tagged with DNA for qPCR detection. Streptavidin-coated magnetic beads were treated with biotinylated small molecule ligands for 30 minutes at room temperature to generate affinity resins for kinase assays. The liganded beads were blocked with excess biotin and washed with blocking buffer (SeaBlock (Pierce), 1% BSA, 0.05% Tween 20, 1 mM DTT) to remove unbound ligand and to reduce non-specific binding. […] Test compounds were prepared as 111× stocks in 100% DMSO. Kds were determined using an 11-point 3-fold compound dilution series with three DMSO control points. All compounds for Kd measurements are distributed by acoustic transfer (non-contact dispensing) in 100% DMSO. The compounds were then diluted directly into the assays such that the final concentration of DMSO was 0.9%. All reactions were performed in polypropylene 384-well plates. Each was a final volume of 0.02 mL. […] The kinase concentration in the eluates was measured by qPCR.
(§3) Binding constants (Kds) were calculated with a standard dose-response curve using the Hill equation. The Hill Slope was set to −1. Curves were fitted using a non-linear least square fit with the Levenberg-Marquardt algorithm.

Another test concerns the target T2, FLT3 K663Q (Homo sapiens, UniProt P36888, K663Q).
T2 construct: purchased DiscoverX (KINOMEscan); host or cells: E. coli BL21-derived host (T7 phage) or HEK-293
T2 sequence (P36888 27-993 K663Q): T1 sequence (P36888 27-993 D835H) with K637Q, H809D
In words: DiscoverX KINOMEscan competition binding assay, FLT3 K663Q. The conditions noted are these: 11-point 3-fold dilution.
Source text: as §1, §2, §3

Positions count from the first letter of the chain named. Bounds are passed on as bounds.

Regarding `CC(O)(c1ccc2ncc(-c3ccnc(N[C@H]4CNCC[C@@H]4F)n3)n2c1)C(F)(F)F` (single isomer, unassigned) [Compound 25a], in the test on THP1 cells (FLT3 WT), the “Excess HSA (sum excess HSA score, combination with venetoclax)” value (shortened to “Excess HSA”) is on record as −1386 and the “Concentration needed to decrease the 312.5 nM Venetoclax response to <20%” value turned out to be 1.25 µM.
As for `COc1cc2ncc(-c3nc(N[C@H]4CNCC[C@@H]4F)ncc3F)n2nc1C1CC1` [Compound 1a, 4-(6-cyclopropyl-7-methoxyimidazo[1,2-b]pyridazin-3-yl)-5-fluoro-N-((3S,4S)-4-fluoropiperidin-3-yl)pyrimidin-2-amine], the values for the Kd on FLT3 D835H and at FLT3 K663Q were 0.22 nM and 0.27 nM, respectively. Besides, the “Excess HSA” value with THP1 cells (FLT3 WT) is listed as −696.6. Also, the “Concentration needed to decrease the 312.5 nM Venetoclax response to <20%” value in the test with THP1 cells (FLT3 WT) came out at 2.5 µM.
Take `FC(F)COc1cc2ncc(-c3ccnc(N[C@H]4CNCC[C@@H]4F)n3)n2nc1C1CC1` [Compound 4a, 4-(6-cyclopropyl-7-(2,2-difluoroethoxy)imidazo[1,2-b]pyridazin-3-yl)-N-((3 S,4S)-4-fluoropiperidin-3-yl)pyrimidin-2-amine]: the Kd at FLT3 D835H turned out to be 0.7 nM; at FLT3 K663Q it was 2.3 nM. For the same molecule, the “Excess HSA” value in the test with THP1 cells (FLT3 WT) is given as −2433. Besides, the “Concentration needed to decrease the 312.5 nM Venetoclax response to <20%” value in the test with THP1 cells (FLT3 WT) worked out at 2.5 µM.
Regarding `F[C@H]1CCNC[C@@H]1Nc1nccc(-c2cnc3cc(OC4CC4)c(C4CC4)nn23)n1` [Compound 12a, 4-(7-cyclopropoxy-6-cyclopropylimidazo[1,2-b]pyridazin-3-yl)-N-((3S,4S)-4-fluoropiperidin-3-yl)pyrimidin-2-amine], in the test on THP1 cells (FLT3 WT), the “Excess HSA” value is reported as −1770.6140 and the “Concentration needed to decrease the 312.5 nM Venetoclax response to <20%” value is 5 µM.
In turn, `COc1cc2ncc(-c3nc(N[C@H]4CNCC[C@@H]4F)ncc3F)n2nc1C(C)(C)O` [Compound 45a, 2-(3-(5-fluoro-2-(((3S,4S)-4-fluoropiperidin-3-yl)amino)pyrimidin-4-yl)-7-methoxyimidazo[1,2-b]pyridazin-6-yl)propan-2-ol] returned a Kd at FLT3 D835H of 0.42 nM. This molecule showed a Kd on FLT3 K663Q of 3.5 nM. Besides, in the test on THP1 cells (FLT3 WT), the “Excess HSA” value is −1158 and the “Concentration needed to decrease the 312.5 nM Venetoclax response to <20%” value is 10 µM.
On the same counts, the results for `CC(C)(O)c1ccc2ncc(-c3nc(N[C@H]4CNCC[C@@H]4F)ncc3F)n2c1` [Compound 46a, 2-(3-(5-fluoro-2-(((3S,4S)-4-fluoropiperidin-3-yl)amino)pyrimidin-4-yl)imidazo[1,2-a]pyridin-6-yl)propan-2-ol] are 0.67 nM, 3.7 nM, −774 and 2.5 µM.
For `CC(C)(O)c1ccc2ncc(-c3nc(N[C@@H]4CCCNC4)ncc3F)n2c1` [Compound 48a, (R)-2-(3-(5-fluoro-2-(piperidin-3-ylamino)pyrimidin-4-yl)imidazo[1,2-a]pyridin-6-yl)propan-2-ol], in the test on THP1 cells (FLT3 WT), the “Excess HSA” value was −759.8 and the “Concentration needed to decrease the 312.5 nM Venetoclax response to <20%” value amounted to 2.5 µM.
For the molecule `COc1cc2ncc(-c3nc(N[C@H]4CNCC[C@@H]4F)ncc3F)n2nc1C1CC(F)(F)C1` [Compound 49a, 4-(6-(3,3-difluorocyclobutyl)-7-methoxyimidazo[1,2-b]pyridazin-3-yl)-5-fluoro-N-((3S,4S)-4-fluoropiperidin-3-yl)pyrimidin-2-amine], in the test with THP1 cells (FLT3 WT), the “Excess HSA” value is reported as −1767 and the “Concentration needed to decrease the 312.5 nM Venetoclax response to <20%” value was found to be 10 µM.
Consider `COc1cc2ncc(-c3nc(N[C@@H]4CCCNC4)ncc3F)n2nc1C1CC2(CCC2)C1` [Compound 59a, (R)-5-fluoro-4-(7-methoxy-6-(spiro[3.3]heptan-2-yl)imidazo[1,2-b]pyridazin-3-yl)-N-(piperidin-3-yl)pyrimidin-2-amine], for which, in the test on THP1 cells (FLT3 WT), the “Excess HSA” value is reported as −914.4 and the “Concentration needed to decrease the 312.5 nM Venetoclax response to <20%” value came out at 5 µM.
For `COc1cc2ncc(-c3nc(N[C@H]4CNCC[C@@H]4F)ncc3F)n2nc1C1CC2(CCC2)C1` [Compound 60a, 5-fluoro-N-((3S,4S)-4-fluoropiperidin-3-yl)-4-(7-methoxy-6-(spiro[3.3]heptan-2-yl)imidazo[1,2-b]pyridazin-3-yl)pyrimidin-2-amine], in the test on THP1 cells (FLT3 WT), the “Excess HSA” value is on record as −1548 and the “Concentration needed to decrease the 312.5 nM Venetoclax response to <20%” value turned out to be 5 µM.
On the same counts, the results for `COc1cc2ncc(-c3ccnc(N[C@H]4CNCC[C@@H]4F)n3)n2nc1C1CCC1` [Compound 79a, 4-(6-cyclobutyl-7-methoxyimidazo[1,2-b]pyridazin-3-yl)-N-((3S,4S)-4-fluoropiperidin-3-yl)pyrimidin-2-amine] are −994.9 and 5 µM.
For the molecule `COc1cc2ncc(-c3nc(N[C@H]4CNCC[C@@H]4F)ncc3F)n2nc1N1CCCS1(=O)=O` [Compound 112a, 2-(3-(5-fluoro-2-(((3S,4S)-4-fluoropiperidin-3-yl)amino)pyrimidin-4-yl)-7-methoxyimidazo[1,2-b]pyridazin-6-yl)isothiazolidine 1,1-dioxide], the figures for the Kd on FLT3 D835H and on FLT3 K663Q were less than 0.17 nM and 0.31 nM, respectively.
